PubChem BioAssay (NCI)
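A five-concentration, 48-hour dose response in 96-well plates underlies each endpoint, interpolated linearly between surrounding concentrations. GI50 is the concentration that inhibits growth by half. TGI denotes the concentration required for complete inhibition of growth.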

Tests used:
Experiment in all cases: NCI tumour cell line growth inhibition, 48 h
KM12 colon = tested on: KM12 colon
UACC-62 melanoma = tested on: UACC-62 melanoma
OVCAR-4 ovarian = tested on: OVCAR-4 ovarian
EKVX NSCLC = tested on: EKVX NSCLC
IGROV1 ovarian = tested on: IGROV1 ovarian
OVCAR-8 ovarian = tested on: OVCAR-8 ovarian
HOP-62 NSCLC = tested on: HOP-62 NSCLC
MALME-3M melanoma = tested on: MALME-3M melanoma
U251 CNS = tested on: U251 CNS
ACHN renal = tested on: ACHN renal
CAKI-1 renal = tested on: CAKI-1 renal
SF-268 CNS = tested on: SF-268 CNS
RXF 393 renal = tested on: RXF 393 renal
NCI-H23 lung = tested on: NCI-H23 lung
A498 renal = tested on: A498 renal
NCI-H460 lung = tested on: NCI-H460 lung
HT29 colon = tested on: HT29 colon
NCI-H522 lung = tested on: NCI-H522 lung
SK-MEL-2 melanoma = tested on: SK-MEL-2 melanoma
HOP-92 NSCLC = tested on: HOP-92 NSCLC
MDA-MB-231 breast = tested on: MDA-MB-231 breast
PC-3 prostate = tested on: PC-3 prostate
A549 NSCLC = tested on: A549 NSCLC
SW-620 colon = tested on: SW-620 colon
CCRF-CEM leukemia = tested on: CCRF-CEM leukemia
HS 578T breast = tested on: HS 578T breast
SK-MEL-5 melanoma = tested on: SK-MEL-5 melanoma
HCT-116 colon = tested on: HCT-116 colon
SNB-19 CNS = tested on: SNB-19 CNS
SF-295 CNS = tested on: SF-295 CNS
SF-539 CNS = tested on: SF-539 CNS
SK-OV-3 ovarian = tested on: SK-OV-3 ovarian
TK-10 renal = tested on: TK-10 renal
COLO 205 colon = tested on: COLO 205 colon
OVCAR-5 ovarian = tested on: OVCAR-5 ovarian
786-0 renal = tested on: 786-0 renal
BT-549 breast = tested on: BT-549 breast
NCI-H226 lung = tested on: NCI-H226 lung
UACC-257 melanoma = tested on: UACC-257 melanoma
OVCAR-3 ovarian = tested on: OVCAR-3 ovarian
MDA-MB-435 = tested on: MDA-MB-435
M14 melanoma = tested on: M14 melanoma
UO-31 renal = tested on: UO-31 renal
MOLT-4 leukemia = tested on: MOLT-4 leukemia
RPMI-8226 leukemia = tested on: RPMI-8226 leukemia
SK-MEL-28 melanoma = tested on: SK-MEL-28 melanoma
T-47D breast = tested on: T-47D breast
SNB-75 CNS = tested on: SNB-75 CNS
HCT-15 colon = tested on: HCT-15 colon
LOX IMVI melanoma = tested on: LOX IMVI melanoma
SN12C renal = tested on: SN12C renal
K-562 leukemia = tested on: K-562 leukemia
DU-145 prostate = tested on: DU-145 prostate
MCF7 breast = tested on: MCF7 breast
HCC-2998 colon = tested on: HCC-2998 colon

CC1SC(c2ccc(Cl)c(Cl)c2)N(NC(=O)C(O)c2ccccc2)C1=O (stereo not given)
GI50 (KM12 colon): 42.6 µM | TGI (KM12 colon): > 100 µM | GI50 (UACC-62 melanoma): 25.2 µM | TGI (UACC-62 melanoma): 86.1 µM | GI50 (OVCAR-4 ovarian): 32.6 µM | TGI (OVCAR-4 ovarian): 91.2 µM | GI50 (EKVX NSCLC): 43.7 µM | TGI (EKVX NSCLC): > 100 µM | GI50 (IGROV1 ovarian): 28.5 µM | TGI (IGROV1 ovarian): 74.6 µM | GI50 (OVCAR-8 ovarian): 34.1 µM | TGI (OVCAR-8 ovarian): > 100 µM | GI50 (HOP-62 NSCLC): 85.1 µM | TGI (HOP-62 NSCLC): > 100 µM | GI50 (MALME-3M melanoma): 46.2 µM | TGI (MALME-3M melanoma): > 100 µM | GI50 (U251 CNS): 41 µM | TGI (U251 CNS): > 100 µM | GI50 (ACHN renal): 33.3 µM | TGI (ACHN renal): > 100 µM | GI50 (CAKI-1 renal): 30.7 µM | TGI (CAKI-1 renal): > 100 µM | GI50 (SF-268 CNS): 55.7 µM | TGI (SF-268 CNS): > 100 µM | GI50 (RXF 393 renal): 30.3 µM | TGI (RXF 393 renal): 83.2 µM | GI50 (NCI-H23 lung): 33.3 µM | TGI (NCI-H23 lung): > 100 µM | GI50 (A498 renal): 77.1 µM | TGI (A498 renal): > 100 µM | GI50 (NCI-H460 lung): 33.5 µM | TGI (NCI-H460 lung): > 100 µM | GI50 (HT29 colon): 32.3 µM | TGI (HT29 colon): > 100 µM | GI50 (NCI-H522 lung): 28.4 µM | TGI (NCI-H522 lung): 98.5 µM | GI50 (SK-MEL-2 melanoma): 45.4 µM | TGI (SK-MEL-2 melanoma): > 100 µM | GI50 (HOP-92 NSCLC): 40.8 µM | TGI (HOP-92 NSCLC): > 100 µM | GI50 (MDA-MB-231 breast): 31.3 µM | TGI (MDA-MB-231 breast): > 100 µM | GI50 (PC-3 prostate): 35 µM | TGI (PC-3 prostate): > 100 µM | GI50 (A549 NSCLC): 29.6 µM | TGI (A549 NSCLC): 85.4 µM | GI50 (SW-620 colon): 77.2 µM | TGI (SW-620 colon): > 100 µM | GI50 (CCRF-CEM leukemia): 55.1 µM | TGI (CCRF-CEM leukemia): > 100 µM | GI50 (HS 578T breast): 51.1 µM | TGI (HS 578T breast): > 100 µM | GI50 (SK-MEL-5 melanoma): 38.1 µM | TGI (SK-MEL-5 melanoma): > 100 µM | GI50 (HCT-116 colon): 43.2 µM | TGI (HCT-116 colon): > 100 µM | GI50 (SNB-19 CNS): 93.2 µM | TGI (SNB-19 CNS): > 100 µM | GI50 (SF-295 CNS): 24.5 µM | TGI (SF-295 CNS): 67.5 µM | GI50 (SF-539 CNS): 72.6 µM | TGI (SF-539 CNS): > 100 µM | GI50 (SK-OV-3 ovarian): > 100 µM | TGI (SK-OV-3 ovarian): > 100 µM | GI50 (TK-10 renal): 41.3 µM | TGI (TK-10 renal): > 100 µM | GI50 (COLO 205 colon): 44.7 µM | TGI (COLO 205 colon): > 100 µM | GI50 (OVCAR-5 ovarian): 70.1 µM | TGI (OVCAR-5 ovarian): > 100 µM | GI50 (786-0 renal): 79.6 µM | TGI (786-0 renal): > 100 µM | GI50 (BT-549 breast): 45 µM | TGI (BT-549 breast): > 100 µM | GI50 (NCI-H226 lung): 33.6 µM | TGI (NCI-H226 lung): > 100 µM | GI50 (UACC-257 melanoma): 35.1 µM | TGI (UACC-257 melanoma): > 100 µM | GI50 (OVCAR-3 ovarian): 25.9 µM | TGI (OVCAR-3 ovarian): 77.6 µM | GI50 (MDA-MB-435): 41.8 µM | TGI (MDA-MB-435): > 100 µM | GI50 (M14 melanoma): 42.5 µM | TGI (M14 melanoma): > 100 µM | GI50 (UO-31 renal): 36.6 µM | TGI (UO-31 renal): > 100 µM | GI50 (MOLT-4 leukemia): 26.6 µM | TGI (MOLT-4 leukemia): 82.2 µM | GI50 (RPMI-8226 leukemia): 25 µM | TGI (RPMI-8226 leukemia): 66 µM | GI50 (SK-MEL-28 melanoma): 38.5 µM | TGI (SK-MEL-28 melanoma): > 100 µM | GI50 (T-47D breast): 67.5 µM | TGI (T-47D breast): > 100 µM | GI50 (SNB-75 CNS): 24.8 µM | TGI (SNB-75 CNS): 90.1 µM | GI50 (HCT-15 colon): 45.5 µM | TGI (HCT-15 colon): > 100 µM | GI50 (LOX IMVI melanoma): 55.2 µM | TGI (LOX IMVI melanoma): > 100 µM | GI50 (SN12C renal): 44.1 µM | TGI (SN12C renal): > 100 µM | GI50 (K-562 leukemia): 57.1 µM | TGI (K-562 leukemia): > 100 µM | GI50 (DU-145 prostate): 59.2 µM | TGI (DU-145 prostate): > 100 µM | GI50 (MCF7 breast): 47.1 µM | TGI (MCF7 breast): > 100 µM | GI50 (HCC-2998 colon): 36.9 µM | TGI (HCC-2998 colon): > 100 µM
